# Assay results taken from US12459922B2 (Gilead Sciences, Inc., priority 2022, dated 2025).
# System: endogenous cellular STAT1 (phosphorylated at Tyr701) in NCI-H1373 cells
# Experiment: Phospho-STAT1 (Tyr701) LANCE Ultra TR-FRET Detection Assay
# Type: cell-based
# Details: Homo sapiens, NCI-H1373, 48 h, phospho-STAT1 (Tyr701) induction, read-out: NH1373 pSTAT1 EC50
row,SMILES,EC50 [nM]
1,"CC[C@@H](CCCn1ccc2cc(-c3ncc(OC(F)F)c(N)n3)c(F)cc2c1=O)Nc1cn[nH]c(=O)c1C(F)(F)F [Example 360, (S)-6-(4-amino-5-(difluoromethoxy)pyrimidin-2-yl)-7-fluoro-2-(4-((6-oxo-5-(trifluoromethyl)-1,6-dihydropyridazin-4-yl)amino)hexyl)isoquinolin-1(2H)-one]",12.7
2,"CC[C@@H](CCCn1ccc2cc(-c3ncc(OC(F)F)c(N)n3)c(F)c(F)c2c1=O)Nc1cn[nH]c(=O)c1C(F)(F)F [Example 361, (S)-6-(4-amino-5-(difluoromethoxy)pyrimidin-2-yl)-7,8-difluoro-2-(4-((6-oxo-5-(trifluoromethyl)-1,6-dihydropyridazin-4-yl)amino)hexyl)isoquinolin-1(2H)-one]",10.9
3,"CC[C@@H](CCCn1ccc2cc(-c3cnc(C(F)(F)F)c(N)n3)c(F)c(F)c2c1=O)Nc1cn[nH]c(=O)c1C(F)(F)F [Example 362, (S)-6-(6-amino-5-(trifluoromethyl)pyrazin-2-yl)-7,8-difluoro-2-(4-((6-oxo-5-(trifluoromethyl)-1,6-dihydropyridazin-4-yl)amino)hexyl)isoquinolin-1(2H)-one]",15.7
4,"C[C@@H](CCCn1ccc2cc(-c3ncnc(N)n3)c(F)cc2c1=O)Nc1cn[nH]c(=O)c1C(F)(F)F [Example 365, (S)-6-(4-amino-1,3,5-triazin-2-yl)-7-fluoro-2-(4-((6-oxo-5-(trifluoromethyl)-1,6-dihydropyridazin-4-yl)amino)pentyl)isoquinolin-1(2H)-one]",55.8
5,"Nc1nc(-c2cc3ccn(CCC[C@H](COC(F)F)Nc4cn[nH]c(=O)c4C(F)(F)F)c(=O)c3cc2F)ncc1OC(F)F [Example 369, (R)-6-(4-amino-5-(difluoromethoxy)pyrimidin-2-yl)-2-(5-(difluoromethoxy)-4-((6-oxo-5-(trifluoromethyl)-1,6-dihydropyridazin-4-yl)amino)pentyl)-7-fluoroisoquinolin-1(2H)-one]",7.35
6,"COc1cnc(-c2cc3ccn(CCC[C@H](COC(F)F)Nc4cn[nH]c(=O)c4C(F)(F)F)c(=O)c3cc2F)nc1N [Example 370, (R)-6-(4-amino-5-methoxypyrimidin-2-yl)-2-(5-(difluoromethoxy)-4-((6-oxo-5-(trifluoromethyl)-1,6-dihydropyridazin-4-yl)amino)pentyl)-7-fluoroisoquinolin-1(2H)-one]",8.33
7,"O=c1[nH]ncc(N[C@H](CCCn2cnc3cc(-c4cnc(C(F)F)cn4)c(F)cc3c2=O)COC(F)F)c1C(F)(F)F [Example 372, (R)-3-(5-(difluoromethoxy)-4-((6-oxo-5-(trifluoromethyl)-1,6-dihydropyridazin-4-yl)amino)pentyl)-7-(5-(difluoromethyl)pyrazin-2-yl)-6-fluoroquinazolin-4(3H)-one]",7.13
8,"O=c1[nH]ncc(N[C@H](CCCn2cnc3cc(-c4cnc(OC(F)F)cn4)c(F)cc3c2=O)COC(F)F)c1C(F)(F)F [Example 373, (R)-3-(5-(difluoromethoxy)-4-((6-oxo-5-(trifluoromethyl)-1,6-dihydropyridazin-4-yl)amino)pentyl)-7-(5-(difluoromethoxy)pyrazin-2-yl)-6-fluoroquinazolin-4(3H)-one]",16.6
9,"Nc1nc(-c2cc3ncn(CCC[C@H](COC(F)F)Nc4cn[nH]c(=O)c4C(F)(F)F)c(=O)c3cc2F)ncc1OC(F)F [Example 374, (R)-7-(4-amino-5-(difluoromethoxy)pyrimidin-2-yl)-3-(5-(difluoromethoxy)-4-((6-oxo-5-(trifluoromethyl)-1,6-dihydropyridazin-4-yl)amino)pentyl)-6-fluoroquinazolin-4(3H)-one]",44.8
10,"O=c1[nH]ncc(N[C@H](CCCn2cnc3cc(-c4ncc(C(F)(F)F)cn4)c(F)cc3c2=O)COC(F)F)c1C(F)(F)F [Example 382, (R)-3-(5-(difluoromethoxy)-4-((6-oxo-5-(trifluoromethyl)-1,6-dihydropyridazin-4-yl)amino)pentyl)-6-fluoro-7-(5-(trifluoromethyl)pyrimidin-2-yl)quinazolin-4(3H)-one]",2.17
11,"O=c1[nH]ncc(N[C@H](CCCn2ccc3nc(-c4ccc(C(F)(F)F)cn4)ccc3c2=O)COC(F)F)c1C(F)(F)F [Example 386, (R)-6-(5-(difluoromethoxy)-4-((6-oxo-5-(trifluoromethyl)-1,6-dihydropyridazin-4-yl)amino)pentyl)-2-(5-(trifluoromethyl)pyridin-2-yl)-1,6-naphthyridin-5(6H)-one]",2.96
12,"O=c1[nH]ncc(N[C@H](CCCn2ccc3cc(-c4ncc(C(F)F)cn4)c(F)c(F)c3c2=O)COC(F)F)c1C(F)(F)F [Example 388, (R)-2-(5-(difluoromethoxy)-4-((6-oxo-5-(trifluoromethyl)-1,6-dihydropyridazin-4-yl)amino)pentyl)-6-(5-(difluoromethyl)pyrimidin-2-yl)-7,8-difluoroisoquinolin-1(2H)-one]",2.74
13,"Nc1nc(-c2cc3ccn(CCC[C@H](COC(F)F)Nc4cn[nH]c(=O)c4C(F)(F)F)c(=O)c3c(F)c2F)ncc1C(F)(F)F [Example 389, (R)-6-(4-amino-5-(trifluoromethyl)pyrimidin-2-yl)-2-(5-(difluoromethoxy)-4-((6-oxo-5-(trifluoromethyl)-1,6-dihydropyridazin-4-yl)amino)pentyl)-7,8-difluoroisoquinolin-1(2H)-one]",5.14

# More lines, now with the values ahead:
row,EC50 [nM],SMILES
1,3.28,"C[C@@H](CCCn1ccc2cc(-c3nc(N)c4ccccc4n3)c(F)cc2c1=O)Nc1cn[nH]c(=O)c1C(F)(F)F [Example 363, (S)-6-(4-aminoquinazolin-2-yl)-7-fluoro-2-(4-((6-oxo-5-(trifluoromethyl)-1,6-dihydropyridazin-4-yl)amino)pentyl)isoquinolin-1(2H)-one]"
2,96.4,"CC[C@@H](CCCn1cnc2cc(-c3ncc(OC(F)F)c(N)n3)c(F)cc2c1=O)Nc1cn[nH]c(=O)c1C(F)(F)F [Example 364, (S)-7-(4-amino-5-(difluoromethoxy)pyrimidin-2-yl)-6-fluoro-3-(4-((6-oxo-5-(trifluoromethyl)-1,6-dihydropyridazin-4-yl)amino)hexyl)quinazolin-4(3H)-one]"
3,92.5,"Cc1nc(N)nc(-c2cc3ccn(CCC[C@H](C)Nc4cn[nH]c(=O)c4C(F)(F)F)c(=O)c3cc2F)n1 [Example 366, (S)-6-(4-amino-6-methyl-1,3,5-triazin-2-yl)-7-fluoro-2-(4-((6-oxo-5-(trifluoromethyl)-1,6-dihydropyridazin-4-yl)amino)pentyl)isoquinolin-1(2H)-one]"
4,51.1,"C[C@@H](CCCn1cnc2cc(-c3ncc(OC(F)F)c(N)n3)c(F)cc2c1=O)Nc1cn[nH]c(=O)c1C(F)(F)F [Example 367, (S)-7-(4-amino-5-(difluoromethoxy)pyrimidin-2-yl)-6-fluoro-3-(4-((6-oxo-5-(trifluoromethyl)-1,6-dihydropyridazin-4-yl)amino)pentyl)quinazolin-4(3H)-one]"
5,6.78,"O=c1[nH]ncc(N[C@H](CCCn2ccc3cc(-c4cnc(OC(F)F)cn4)c(F)cc3c2=O)COC(F)F)c1C(F)(F)F [Example 371, (R)-2-(5-(difluoromethoxy)-4-((6-oxo-5-(trifluoromethyl)-1,6-dihydropyridazin-4-yl)amino)pentyl)-6-(5-(difluoromethoxy)pyrazin-2-yl)-7-fluoroisoquinolin-1(2H)-one]"
6,3.84,"O=c1[nH]ncc(N[C@H](CCCn2ccc3cc(-c4ncc(C(F)(F)F)cn4)c(F)c(F)c3c2=O)COC(F)F)c1C(F)(F)F [Example 375, (R)-2-(5-(difluoromethoxy)-4-((6-oxo-5-(trifluoromethyl)-1,6-dihydropyridazin-4-yl)amino)pentyl)-7,8-difluoro-6-(5-(trifluoromethyl)pyrimidin-2-yl)isoquinolin-1(2H)-one]"
7,18.5,"Nc1nc(-c2cc3ncn(CCC[C@H](COC(F)F)Nc4cn[nH]c(=O)c4C(F)(F)F)c(=O)c3cc2F)ncc1C(F)F [Example 383, (R)-7-(4-amino-5-(difluoromethyl)pyrimidin-2-yl)-3-(5-(difluoromethoxy)-4-((6-oxo-5-(trifluoromethyl)-1,6-dihydropyridazin-4-yl)amino)pentyl)-6-fluoroquinazolin-4(3H)-one]"
8,2.41,"O=c1[nH]ncc(N[C@H](CCCn2cnc3cc(-c4ncc(C(F)F)cn4)c(F)cc3c2=O)COC(F)F)c1C(F)(F)F [Example 384, (R)-3-(5-(difluoromethoxy)-4-((6-oxo-5-(trifluoromethyl)-1,6-dihydropyridazin-4-yl)amino)pentyl)-7-(5-(difluoromethyl)pyrimidin-2-yl)-6-fluoroquinazolin-4(3H)-one]"
9,13.3,"Nc1nc(-c2cc3ncn(CCC[C@H](COC(F)F)Nc4cn[nH]c(=O)c4C(F)(F)F)c(=O)c3cc2F)ncc1C(F)(F)F [Example 385, (R)-7-(4-amino-5-(trifluoromethyl)pyrimidin-2-yl)-3-(5-(difluoromethoxy)-4-((6-oxo-5-(trifluoromethyl)-1,6-dihydropyridazin-4-yl)amino)pentyl)-6-fluoroquinazolin-4(3H)-one]"
10,10.4,"Nc1nc(-c2cc3ccn(CCC[C@H](COC(F)F)Nc4cn[nH]c(=O)c4C(F)(F)F)c(=O)c3c(F)c2F)ncc1C(F)F [Example 387, (R)-6-(4-amino-5-(difluoromethyl)pyrimidin-2-yl)-2-(5-(difluoromethoxy)-4-((6-oxo-5-(trifluoromethyl)-1,6-dihydropyridazin-4-yl)amino)pentyl)-7,8-difluoroisoquinolin-1(2H)-one]"
11,11.7,"Nc1nc(-c2cc3ncn(CCC[C@H](COC(F)F)Nc4cn[nH]c(=O)c4C(F)(F)F)c(=O)c3cc2F)ccc1C(F)(F)F [Example 390, (R)-7-(6-amino-5-(trifluoromethyl)pyridin-2-yl)-3-(5-(difluoromethoxy)-4-((6-oxo-5-(trifluoromethyl)-1,6-dihydropyridazin-4-yl)amino)pentyl)-6-fluoroquinazolin-4(3H)-one]"
